In patent US20250002486A1, “CYCLIC SULFONAMIDE RIBONUCLEOTIDE REDUCTASE (RNR) INHIBITORS AND USES THEREOF” (Boundless Bio, Inc., priority 2021, published 2025):

Legend:
RNR (RNR1:RNR2 1:1) = RNR (RNR1:RNR2 1:1) (Homo sapiens (Human), UniProt P23921); assay: RNR enzyme activity, rapid-fire mass spectrometry (RF/MS) assay; type: biochemical; conditions: RNR 50 nM, 1:1 RNR1:RNR2; CDP 5 μM, ATP 1 mM; 37° C., 45 min; compounds screened up to 50 μM
Protocol: A rapid-fire mass spectrometry (RF/MS) assay was used to assess RNR enzyme activity using a 384 well plate and a robotic platform.
The plate layout included two validated reference compounds (Triapine (3-AP) and Hydroxyurea (HU)): • A dose response in duplicate; top concentration: 5 μM (3-AP) and 250 μM (HU), semi-log • dilutions. • Spike wells in triplicate randomly spotted at four concentrations: • 250 μM, 100 μM, 30 μM and 2 μM for HU • 5 μM, 2 μM, 0.6 μM and 0.04 μM for 3-AP
First, the multidrop pipes were saturated for 30 minutes with enzymatic solution. Then 30 μL of Stop solution was distributed in column 24. Next, 15 μL of enzyme was distributed in column 1 to 24. Next, a pre-incubation step of 15 minutes at room temperature occurred, followed by distribution of 15 μL of substrate solution (column 1 to 24). Next, the plate was incubated for 45 minutes at 37° C. 30 μL of Stop solution was distributed to columns 1 to 23.
The final parameters for the enzyme reactions were: • Incubation: 37° C., 45 min • [CDP]: 5 μM; [ATP]: 1 mM; [NADPH]: No • [RNR]final: 50 nM with 1:1 (RNR1:RNR2) ratio • Final volume: 30 μL • Stop solution: 6% HCOOH containing 2 μM of 15

[1] = test system: pCHK1 (S345) in Colo320 DM cells; assay: Alphalisa assay: pCHK1 (S345) detection in Colo320 DM cells; type: cell-based, human; conditions: Homo sapiens, COLO 320DM, compound incubation overnight (approximately 16 hours), pCHK1 (S345) AlphaLisa Sure Fire kit
Protocol: Colo320 DM cells (ATCC #CCL-220, derived from human colorectal adenocarcinoma, Dukes' type C) were seeded on a 96-well, cell culture treated assay plate at a density of 50,000 cells/well in 200 μL of RPMI-1640 media supplemented with 10% Fetal Bovine Serum and incubated at 37 degrees Celsius overnight. The following day, test compound dilutions were added directly to the plated cells by a Tecan digital dispenser to a final DMSO concentration of <0.5%. and incubated at 37 degrees Celsius overnight (approximately 16 hours). The following day all cull culture media was removed from the cells. 75 μL of 1× AlphaLisa lysis buffer was added to each well and plates were agitated on a shaker for 30 minutes at room temperature. The lysis of cells and detection of pCHK1 (S345) were performed with regents contained within the AlphaLisa Sure Fire assay kit (Perkin Elmer #ALSU-PCHK1-A) according to the manufacturer's instructions. 10 μL of each lysate was then transferred to a white, 384-well assay plate (Perkin Elmer #6008280). 5 μL of Acceptor mix was then added to each well of lysate in the white, 384-well assay plate and incubated in the dark at room temperature for 60 minutes. 5 μL of Donor mix was then added to each well of the white, 384-well assay plate in subdued light and incubated at room temperature for 60 minutes. Plates were read on an Alpha Technology-compatible plate reader using standard AlphaLisa settings.

Sequence of RNR (RNR1:RNR2 1:1) (P23921 whole entry): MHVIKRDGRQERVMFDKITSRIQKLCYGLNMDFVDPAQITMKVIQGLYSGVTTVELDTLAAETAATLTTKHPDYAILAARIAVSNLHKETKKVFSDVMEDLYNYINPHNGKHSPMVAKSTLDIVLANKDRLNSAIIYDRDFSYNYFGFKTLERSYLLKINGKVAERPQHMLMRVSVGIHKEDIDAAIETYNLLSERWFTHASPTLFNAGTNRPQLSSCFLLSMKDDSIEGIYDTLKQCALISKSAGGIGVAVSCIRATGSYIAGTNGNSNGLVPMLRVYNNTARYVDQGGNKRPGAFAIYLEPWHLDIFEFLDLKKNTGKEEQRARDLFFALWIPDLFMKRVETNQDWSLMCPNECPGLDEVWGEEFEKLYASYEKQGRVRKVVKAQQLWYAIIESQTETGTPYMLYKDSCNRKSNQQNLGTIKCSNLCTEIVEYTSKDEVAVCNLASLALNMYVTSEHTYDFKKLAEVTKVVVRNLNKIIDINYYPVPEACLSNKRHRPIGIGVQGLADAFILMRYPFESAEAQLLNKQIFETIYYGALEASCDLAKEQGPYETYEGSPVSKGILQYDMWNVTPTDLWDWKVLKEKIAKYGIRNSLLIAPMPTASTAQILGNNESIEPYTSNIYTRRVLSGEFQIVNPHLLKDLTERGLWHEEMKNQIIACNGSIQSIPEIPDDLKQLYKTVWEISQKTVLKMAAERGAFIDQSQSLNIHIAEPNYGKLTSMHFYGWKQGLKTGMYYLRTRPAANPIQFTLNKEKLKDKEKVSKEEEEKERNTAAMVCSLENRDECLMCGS

Row | SMILES | IC50 (RNR (RNR1:RNR2 1:1)) | IC50 [1]
1 | Cc1ccc(F)c(C(C)[C@@H](c2n[nH]c(=O)o2)N2CC(C)(C)c3cc(Cl)ccc3S2(=O)=O)c1C (stereo partly drawn) [Example 21, 5-((1S)-1-(6-chloro-4,4-dimethyl-1,1-dioxido-3,4-dihydro-2H-benzo[e][1,2]thiazin-2-yl)-2-(6-fluoro-2,3-dimethylphenyl)propyl)-1,3,4-oxadiazol-2(3H)-one] | 1 to 10 µM | > 50 µM
2 | Cc1ccc(F)c([C@@H](C)[C@@H](c2n[nH]c(=O)o2)N2CC(F)(F)c3cc(Cl)ccc3S2(=O)=O)c1C [Example 22, 5-((1S,2R)-1-(6-chloro-4,4-difluoro-1,1-dioxido-3,4-dihydro-2H-benzo[e][1,2]thiazin-2-yl)-2-(6-fluoro-2,3-dimethylphenyl)propyl)-1,3,4-oxadiazol-2(3H)-one] | 0.1 to 1 µM | 5 to 10 µM
3 | Cc1ccc(F)c([C@@H](C)[C@@H](c2n[nH]c(=O)o2)N2CCc3c(Cl)cccc3S2(=O)=O)c1C [Example 23, 5-((1S,2R)-1-(5-chloro-1,1-dioxido-3,4-dihydro-2H-benzo[e][1,2]thiazin-2-yl)-2-(6-fluoro-2,3-dimethylphenyl)propyl)-1,3,4-oxadiazol-2(3H)-one] | 0.1 to 1 µM | 10 to 50 µM
4 | Cc1ccc(F)c([C@@H](C)[C@@H](c2n[nH]c(=O)o2)N2CCc3cc(Cl)ncc3S2(=O)=O)c1C [Example 27, 5-((1S,2R)-1-(6-chloro-1,1-dioxido-3,4-dihydro-2H-pyrido[4,3-e] [1,2]thiazin-2-yl)-2-(6-fluoro-2,3-dimethylphenyl)propyl)-1,3,4-oxadiazol-2(3H)-one] | 0.1 to 1 µM | > 50 µM

The remaining lines, values ahead:

Row | IC50 (RNR (RNR1:RNR2 1:1)) | IC50 [1] | SMILES
5 | ≤ 0.1 µM | ≤ 5 µM | Cc1ccc(F)c([C@@H](C)[C@@H](c2n[nH]c(=O)o2)N2CCc3nc(Cl)ccc3S2(=O)=O)c1C [Example 24, 5-((1S,2R)-1-(6-chloro-1,1-dioxido-3,4-dihydro-2H-pyrido[2,3-e] [1,2]thiazin-2-yl)-2-(6-fluoro-2,3-dimethylphenyl)propyl)-1,3,4-oxadiazol-2(3H)-one]
6 | ≤ 0.1 µM | 10 to 50 µM | Cc1ccc(F)c([C@@H](C)[C@@H](c2n[nH]c(=O)o2)N2CC(C)(O)c3cc(Cl)ccc3S2(=O)=O)c1C (stereo partly drawn) [Example 25, 5-((1S,2R)-1-(6-chloro-4-hydroxy-4-methyl-1,1-dioxido-3,4-dihydro-2H-benzo[e][1,2]thiazin-2-yl)-2-(6-fluoro-2,3-dimethylphenyl)propyl)-1,3,4-oxadiazol-2(3H)-one]
7 | ≤ 0.1 µM | 10 to 50 µM | Cc1ccc(F)c(C(C)[C@@H](c2n[nH]c(=O)o2)N2C[C@H](O)[C@H](O)c3cc(Cl)ccc3S2(=O)=O)c1C (stereo partly drawn) [Example 26, 5-((1S)-1-((4S, 5R)-7-chloro-4,5-dihydroxy-1,1-dioxido-4,5-dihydrobenzo [f][1,2]thiazepin-2(3H)-yl)-2-(6-fluoro-2,3-dimethylphenyl)propyl)-1,3,4-oxadiazol-2(3H)-one]
